Data on eight compounds can be found in patent US20260176289A1, “SMALL MOLECULE INHIBITORS OF KRAS PROTEINS” (Merck Sharp & Dohme LLC, priority 2022, published 2026).

Read-outs that look alike come from different tables or passages of the source.

One assay deals with HRAS (Homo sapiens, UniProt P01112). As to the kind of experiment: SOS-catalyzed nucleotide exchange assay (Procedure A, TR-FRET), HRAS. It counts as biochemical. Particulars: read-out: HRAS GNE IC50. The text has this:
Procedure for SOS-Catalyzed Nucleotide Exchange Assay for KRAS-WT, G12C/D/V, G13D, HRAS, and NRAS (Procedure A)
Recombinant KRAS-G12C protein used in this assay has an additional triple mutation (C51S/C80L/C118S). Whereas KRAS-WT, G12D/V, G13D, HRAS and NRAS are in context of their WT protein sequence background. Specifically, the SOS-catalyzed nucleotide exchange assay utilizes a preformed TR-FRET complex containing a specific biotinylated RAS protein (KRAS-WT, G12C/V/D, G13D, HRAS, NRAS; described above) with Bodipy-GDP, and Terbium-streptavidin. Compounds are preincubated with this complex for 60 minutes. Subsequently, recombinant human SOS protein and unlabeled GTP are added to initiate the exchange reaction. Small molecule inhibitors stabilize the Bodipy-GDP complex whereas the untreated protein rapidly exchanges Bodipy-GDP for unlabeled GTP resulting in reduced TR-FRET signal.
To assemble the preformed TR-FRET complexes, each biotinylated RAS protein is diluted to 2 μM in an EDTA Buffer (20 mM HEPES pH 7.5, 50 mM sodium chloride, 10 mM EDTA, and 0.01% Tween) and incubated at room temperature for one hour. This mixture is then further diluted to 90 nM in an Assay Buffer (20 mM HEPES pH 7.5, 150 mM sodium chloride, 10 mM magnesium chloride, and 0.005% Tween) containing 15 nM of Terbium-Streptavidin (Invitrogen, catalog #PV3577) and 900 nM of Bodipy-GDP (Invitrogen, catalog #G22360) and incubated at room temperature for six hours. It should be noted that this preformed TR-FRET complex for each of the RAS protein were made ahead of time, aliquoted and stored at −80° C. until the day of the experiment.
Each test compound (10 mM stock in DMSO) is diluted in DMSO to make a final-10-point, 3-fold dilution and is acoustically dispensed into a 384-well assay plate (Corning, catalog #3820) using an Echo 550 (Labcyte). Each well of the assay plate receives 3 μL of a specific 3×RAS preformed TR-FRET complex and 3 μL of Assay Buffer and is incubated at room temperature for 60 minutes (preincubation time). Each well then receives 3 μL of 3×recombinant human SOS protein and GTP (Sigma, G8877) in Assay Buffer and is incubated at room temperature for 30 minutes (G13D), 60 minutes (KRAS WT/G12C/D, H/NRAS) or 90 minutes for G12V. The final reaction in each well of 9 μL consists of 3 mM GTP, specific Ras and SOS proteins in the following concentrations: KRAS-G12C/SOS=3 nM/40 nM, KRAS-WT and G12D/SOS=1 nM/40 nM, KRAS-G12V/SOS=1.25 nM/160 nM. KRAS-G13D/SOS=1.25 nM/0 nM, HRAS and NRAS=1.25 nM/40 nM.
The time-resolved fluorescence resonance energy transfer (TR-FRET) signal is measured on an Envision (PerkinElmer) plate reader: Excitation filter=340 nm; emission 1=495 nm; emission2=520 nm; dichroic mirror=D400/D505; delay time=[…]. The signal of each well is determined as the ratio of the emission at 520 nm to that at 495 nm. Percent effect of each well is determined after normalization to control wells containing DMSO (no effect) or a saturating concentration of inhibitor (max effect). The apparent effect as a function of compound concentration is fit to a four-parameter logistic equation.
For orientation: TR-FRET usually uses a lanthanide donor and a delayed reading to cut background.

The next assay concerns the target KRAS-G12D (Homo sapiens, UniProt P01116, G12D). As to the kind of experiment: SOS-catalyzed nucleotide exchange assay (Procedure A, TR-FRET), KRAS-G12D. The assay is classed as biochemical. Particulars: nucleotide exchange, read-out: KRAS G12D GNE IC50. The method in brief: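 Signal ratio (520/495 nm, excitation 340 nm) reports Bodipy-GDP retention on biotinylated RAS after SOS-catalyzed exchange with 3 mM GTP. SOS was 40 nM, except 160 nM for G12V. Room-temperature exchange lasted 60 min (90 min for G12V), following a 60 min compound preincubation.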

For another assay, the system named is MKN-1 cells. Nature of the assay: Cellular phospho-ERK assay, MKN-1 cells (amplified wild-type KRAS). It counts as cell-based. Particulars: Homo sapiens, read-out: MKN1 pERK IC50. The method in brief: (§1)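 Overnight-plated cells on collagen received test compound (up to 30 μM final, threefold steps, ten concentrations) for two hours. After lysis at room temperature, phosphorylated and total ERK were quantified together by Alpha SureFire, and IC50 is based on the phospho-to-total signal ratio.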

For another assay, the system named is SW620 cells. Nature of the assay: Cellular phospho-ERK assay, SW620 cells (homozygous KRAS-G12V). The assay is classed as cell-based. The settings on record: Homo sapiens, read-out: SW620 pERK IC50. In outline:
as §1

Assay [1] addresses KRAS-G12C (C51S/C80L/C118S) (Homo sapiens, UniProt P01116, C118S/C51S/C80L/G12C). As to the kind of experiment: SOS-catalyzed nucleotide exchange assay (Procedure A, TR-FRET), KRAS-G12C. It counts as biochemical. Particulars: nucleotide exchange, Procedure A; read-out: KRAS G12C GNE IC50. In outline: (§2)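 TR-FRET readout (520/495 nm) of SOS-driven exchange of Bodipy-GDP for unlabeled GTP (3 mM) on biotinylated, Tb-streptavidin-bound RAS, after 60 min compound preincubation at room temperature. Exchange times and RAS/SOS levels: 60 min for WT (1/40 nM), G12C triple mutant (3/40 nM), NRAS (1.25/40 nM); 90 min for G12V (1.25/160 nM). Four-parameter logistic fits on normalized effect.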

The next assay deals with AsPC-1 cells. Nature of the assay: Cellular phospho-ERK assay, AsPC-1 cells (homozygous KRAS-G12D). It counts as cell-based. Particulars: Homo sapiens, ASPC1, 2 h, read-out: AsPC1 pERK IC50. The method in brief: as §1
A further assay concerns the target KRAS-G12V (Homo sapiens, UniProt P01116, G12V). As to the kind of experiment: SOS-catalyzed nucleotide exchange assay (Procedure A, TR-FRET), KRAS-G12V. The assay is classed as biochemical. The settings on record: nucleotide exchange, read-out: KRAS G12V GNE IC50. In outline: as §2
In the next assay the target is KRAS-WT (Homo sapiens, UniProt P01116). As to the kind of experiment: SOS-catalyzed nucleotide exchange assay (Procedure A, TR-FRET), KRAS-WT. The settings on record: nucleotide exchange, read-out: KRAS WT GNE IC50. The assay is classed as biochemical. In outline: as §2
KRAS-WT, sequence (P01116 with tags, fused parts or gaps isoform P01116-2): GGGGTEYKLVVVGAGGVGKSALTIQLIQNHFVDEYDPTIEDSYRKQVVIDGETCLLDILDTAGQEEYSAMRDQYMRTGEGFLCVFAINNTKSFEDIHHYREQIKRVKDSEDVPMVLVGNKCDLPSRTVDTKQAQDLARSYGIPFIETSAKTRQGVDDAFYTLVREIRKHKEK
The target in another assay is KRAS-G13D (Homo sapiens, UniProt P01116, G13D). As to the kind of experiment: SOS-catalyzed nucleotide exchange assay (Procedure A, TR-FRET), KRAS-G13D. It counts as biochemical. The settings on record: nucleotide exchange, Procedure A; read-out: KRAS G13D GNE IC50.
KRAS-G13D, sequence (P01116 with tags, fused parts or gaps isoform P01116-2 G13D): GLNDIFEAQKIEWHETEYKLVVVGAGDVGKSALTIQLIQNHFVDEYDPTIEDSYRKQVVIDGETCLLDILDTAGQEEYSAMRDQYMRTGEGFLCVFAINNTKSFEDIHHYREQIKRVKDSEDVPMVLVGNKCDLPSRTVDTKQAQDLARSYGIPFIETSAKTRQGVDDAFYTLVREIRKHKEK
Setting [2] is: SW-620, 2 hours compound incubation.

HRAS, sequence (P01112 with tags, fused parts or gaps): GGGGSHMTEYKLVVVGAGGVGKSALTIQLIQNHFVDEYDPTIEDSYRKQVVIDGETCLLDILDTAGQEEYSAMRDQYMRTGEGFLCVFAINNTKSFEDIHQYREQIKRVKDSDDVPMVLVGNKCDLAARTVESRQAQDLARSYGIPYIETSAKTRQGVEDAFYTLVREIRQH
KRAS-G12V, sequence (P01116 with tags, fused parts or gaps isoform P01116-2 G12V): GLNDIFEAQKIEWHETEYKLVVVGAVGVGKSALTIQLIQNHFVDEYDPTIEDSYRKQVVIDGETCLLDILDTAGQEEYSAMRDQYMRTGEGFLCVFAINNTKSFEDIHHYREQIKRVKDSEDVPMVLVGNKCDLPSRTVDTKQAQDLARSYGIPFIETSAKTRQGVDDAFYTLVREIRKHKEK
KRAS-G12D, sequence (P01116 with tags, fused parts or gaps isoform P01116-2 G12D): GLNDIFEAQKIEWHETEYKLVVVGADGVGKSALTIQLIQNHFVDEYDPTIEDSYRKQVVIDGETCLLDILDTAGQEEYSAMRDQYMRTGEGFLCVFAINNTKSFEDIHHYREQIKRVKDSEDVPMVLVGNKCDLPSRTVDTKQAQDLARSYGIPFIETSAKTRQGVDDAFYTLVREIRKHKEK
KRAS-G12C (C51S/C80L/C118S), sequence (P01116 with tags, fused parts or gaps isoform P01116-2 G12C/C51S/C80L/C118S): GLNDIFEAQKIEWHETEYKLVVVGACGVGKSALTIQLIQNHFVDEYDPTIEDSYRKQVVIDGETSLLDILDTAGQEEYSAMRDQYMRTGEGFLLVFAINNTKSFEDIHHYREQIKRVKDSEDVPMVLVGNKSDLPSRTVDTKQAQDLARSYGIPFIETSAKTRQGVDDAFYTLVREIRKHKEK

On to `C[C@@]1(O)COCCN(c2nc(OC[C@]3(CN4CC5(CC(F)C5)C4)CC3(F)F)nc3sc4c(-c5c(C6CC6)c(Cl)cc6[nH]ncc56)nccc4c23)C1` [Ex-230], for which the IC50 (commonly the concentration that inhibits the measured activity by half) at HRAS is 1640 nM; on KRAS-G12D, 16 nM; with MKN-1 cells (2 hours compound incubation), 52.7 nM; in the assay with SW620 cells (setting [2]), 23.2 nM; in assay [1], 21.1 nM; in the assay on AsPC-1 cells (2 hours compound incubation), 51.5 nM. Also, the results for the IC50 at KRAS-G12V, on KRAS-WT and at KRAS-G13D were 70.1 nM, 88.5 nM and 13.9 nM, respectively.

Regarding `C[C@@]1(O)COCCN(c2nc(OC[C@@]34CCCN3C/C(=C/F)C4)nc3sc4c(-c5c(C6CC6)c(Cl)cc6[nH]ncc56)nccc4c23)C1` [Ex-209, (6S)-4-(8-(6-chloro-5-cyclopropyl-1H-indazol-4-yl)-2-(((S,E)-2-(fluoro-methylene)tetra-hydro-1H-pyrrol-izin-7a(5H)-yl)-methoxy)pyrido [4′,3′:4,5]thieno [2,3-d]pyrimidin-4-yl)-6-methyl-1,4-oxazepan-6-ol], the 50% inhibitory concentration (IC50) on HRAS came out at 9430 nM; at KRAS-G12D it was 2.91 nM; with MKN-1 cells (2 hours compound incubation) it was 158 nM; in the assay on SW620 cells (setting [2]) it was 49.7 nM; in [1], 47.7 nM; in the assay on AsPC-1 cells (2 hours compound incubation) it was 53 nM. In addition, the values for the IC50 at KRAS-G12V, on KRAS-WT and at KRAS-G13D were 12 nM, 9.46 nM and 13.6 nM, respectively.

Turning to `CCC1c2c(cc3[nH]ncc3c2-c2nccc3c2sc2nc(OC[C@@]45CCCN4C/C(=C\F)C5)nc(N4CCOC[C@@](C)(O)C4)c23)CC1(F)F` (single isomer, unassigned) [Ex-109], the IC50 on HRAS came to 8060 nM; at KRAS-G12D, 4.33 nM; in the assay on MKN-1 cells (amplified wild-type KRAS, 2 hours) it was 15.5 nM; in the assay on SW620 cells (SW-620, KRAS-G12V, 2 hours) it was 18.8 nM; in assay [1], 34.2 nM; in the assay with AsPC-1 cells (KRAS-G12D, 2 hours), 38.4 nM. Moreover, the IC50 at KRAS-G12V was 5.48 nM; at KRAS-WT, 6.12 nM; at KRAS-G13D, 4.73 nM.

Consider `C=C1CN2CCC[C@@]2(COc2nc(N3CCOC[C@@](C)(O)C3)c3c(n2)sc2c(-c4c(C5CC5)c(Cl)cc5[nH]ncc45)nccc23)C1` [Ex-224, (6S)-4-(8-(6-chloro-5-cyclopropyl-1H-indazol-4-yl)-2-(((S)-2-methylene-tetrahydro-1H-pyrrolizin-7a(5H)-yl)methoxy)pyrido [4′,3′:4,5]thieno[2,3-d]pyrimidin-4-yl)-6-methyl-1,4-oxaze-pan-6-ol], for which the IC50 at HRAS amounted to 3310 nM; on KRAS-G12D it was 2.72 nM; with MKN-1 cells (2 hours compound incubation), 23.5 nM; with SW620 cells (setting [2]), 9.81 nM; in assay [1] it was 19 nM; with AsPC-1 cells (2 hours compound incubation) it was 19.4 nM. In addition, the IC50 at KRAS-G12V worked out at 11.9 nM; at KRAS-WT it was 5.37 nM; at KRAS-G13D, 5.48 nM.

With `C[C@H](N(C)C)[C@@]1(COc2nc(N3CCOC[C@@](C)(O)C3)c3c(n2)sc2c(-c4c(C5CC5)c(Cl)cc5[nH]ncc45)nccc23)CC1(F)F` [Ex-215, (6S)-4-(8-(6-chloro-5-cyclopropyl-1H-indazol-4-yl)-2-(((R)-1-((S)-1-(dimethylamino)-ethyl)-2,2-difluoro-cyclopropyl)meth-oxy)pyrido[4′,3′: 4,5]thieno[2,3-d]pyrimidin-4-yl)-6-methyl-1,4-oxaze-pan-6-ol], the IC50 is 1610 nM on HRAS; 3.75 nM at KRAS-G12D; 32.6 nM with MKN-1 cells (2 hours compound incubation); 23 nM in the assay with SW620 cells (setting [2]); 105 nM in assay [1]; 55.9 nM with AsPC-1 cells (2 hours compound incubation). Also, the results for the IC50 on KRAS-G12V, on KRAS-WT and on KRAS-G13D were 20.9 nM, 16 nM and 38.9 nM, respectively.

With `C[C@@]1(O)COCCN(c2nc(OC[C@]3(CN4C[C@H]5CCCO[C@H]5C4)CC3(F)F)nc3sc4c(-c5c(C6(F)CC6)c(Cl)cc6[nH]ncc56)nccc4c23)C1` [Ex-255, (6S)-4-(8-(6-chloro-5-(1-fluorocyclopropyl)-1H-indazol-4-yl)-2-(((R)-2,2-difluoro-1-(((4aR,7aR)-hexahydropyrano[2,3-c]pyrrol-6(2H)-yl)methyl)cyclopropyl)metho-xy)pyrido[4′,3′:4,5]thieno[2,3-d]pyrimidin-4-yl)-6-methyl-1,4-oxazepan-6-o1], the IC50 on HRAS was 1390 nM; at KRAS-G12D, 4.79 nM; in the assay on MKN-1 cells (2 hours compound incubation), 25.3 nM; in the assay on SW620 cells (setting [2]) it was 40.1 nM; in assay [1], 86.7 nM; in the assay on AsPC-1 cells (2 hours compound incubation), 93.3 nM. Also, the IC50 at KRAS-G12V was determined as 14.9 nM; on KRAS-WT, 18.5 nM; on KRAS-G13D, 12.8 nM.

Take `C[C@H]1CCN1C[C@@]1(COc2nc(N3CCOC[C@@](C)(O)C3)c3c(n2)sc2c(-c4c(C5(F)CC5)c(Cl)cc5[nH]ncc45)nccc23)CC1(F)F` [Ex-253, (6S)-4-(8-(6-chloro-5-(1-fluorocyclopropyl)-1H-indazol-4-yl)-2-(((R)-2,2-difluoro-1-(((S)-2-methylazetidin-1-yl)methyl)cyclopropyl)metho-xy)pyrido[4′,3′:4,5]thieno[2,3-d]pyrimidin-4-yl)-6-methyl-1,4-oxazepan-6-ol]: the IC50 on HRAS was determined as 1060 nM; at KRAS-G12D it was 4.1 nM; with MKN-1 cells (2 hours compound incubation), 49.7 nM; with SW620 cells (setting [2]), 49.6 nM; in assay [1], 15.2 nM; in the assay on AsPC-1 cells (2 hours compound incubation), 57.6 nM. Besides, the half-inhibitory concentration (IC50) on KRAS-G12V amounted to 15.9 nM; at KRAS-WT it was 20.1 nM; on KRAS-G13D, 18.4 nM.

On to `[2H]C([2H])([2H])N(C[C@@]1(COc2nc(N3CCOC[C@@](C)(O)C3)c3c(n2)sc2c(-c4c(C5(F)CC5)c(Cl)cc5[nH]ncc45)nccc23)CC1(F)F)C([2H])([2H])[2H]` [Ex-231], for which the IC50 on HRAS amounted to 492 nM; on KRAS-G12D it was 2.87 nM; in assay [1], 20.3 nM; with AsPC-1 cells (2 hours compound incubation) it was 25.7 nM; on KRAS-G12V, 8.77 nM; on KRAS-WT it was 8.55 nM. Further, the IC50 at KRAS-G13D was 15 nM.
